Assay results reported in US20140309310A1 (GACHON UNIVERSITY OF INDUSTRY-ACADEMIC COOPERATION …, priority 2011, published 2014).

How the values were obtained:
[1] = test system: osteopenia induced by aging (female C57BL/6J mice); test: Whole-body bone mineral density and bone mass by DEXA in mice with osteoporosis induced by aging; format: in vivo, mouse; details: DDS 2 mg/kg over 12 weeks
Method: The mice were acclimated for 1 week, housed at a temperature of 21±1° C. and a humidity of 60%, and allowed access to food ad libitum.

[2] = test system: ovariectomy-induced osteoporosis (ovariectomized BALB/c mice); test: Whole-body bone mineral density and bone mass by dual energy X-ray absorptiometry (DEXA) in ovariectomized mice; format: in vivo, mouse; details: DDS oral 2 mg/kg from 1 week before to 12 weeks after ovariectomy, whole body DEXA at 12 weeks, P<0.05 vs OVX
Description: 10-week-old BALB/c mice were subjected to ovariectomy (OVX) to make experimental animal models with osteopenia induced by OVX. […] All the animal studies were approved by the Animal Research Ethical Committee of Seoul National University.

[3] = test system: ovariectomy-induced osteoporosis (ovariectomized BALB/c mice); test: High-resolution micro-CT imaging of femoral trabecular bone, trabecular thickness and separation in ovariectomized mice; format: in vivo, mouse; details: OVX mice, DDS oral 2 mg/kg
Method: 10-week-old BALB/c mice were subjected to ovariectomy (OVX) to make experimental animal models with osteopenia induced by OVX. […] All the animal studies were approved by the Animal Research Ethical Committee of Seoul National University. The trabecular bone of femoral region adjacent to the mouse shin was imaged by radiography using high-resolution micro-CT. The right limb of the mice was excised and stored in 10% formalin for one day. Then, the bone tissue was stored in 70% alcohol at 4° C. until use in analysis. The bone tissue was imaged by computer tomography using Skyscan 1076 Desktop X-ray Microtomograph (Skyscan, Belgium) at a tube voltage of 100 kV and an exposure current of 200 μA. For the acquired images, bone mineral density (BMD) and bone volume (BV) were measured using Skyscan CTan ver. 1.5.0 and Shortcut to ANT image analysis program (Skyscan, Belgium), and the acquired images were reconstituted into three-dimensional images. In addition, trabecular thickness (Tb. Th) and trabecular separation (Tb. Sp), which are the indices of morphological microstructures on the micro CT images, were measured, and the results of the measurement are shown in FIG. 3.

Caenorhabditis elegans = details: reported; cited from earlier work

Nc1ccc(S(=O)(=O)c2ccc(N)cc2)cc1 [DDS, diaminodiphenylsulfone]
change in bone mass, 8-month-old mice ([1]; female C57BL/6J): no significant change
change in bone mineral density, 8-month-old mice ([1]; female C57BL/6J): no significant change
increase in bone mass, 30-month-old mice ([1]; female mice): 9.6%
increase in bone mineral density, 30-month-old mice ([1]; female mice): 5.11%
increase in bone mass compared to the positive control group (OVX) [2]: 9.13%
increase in bone mineral density compared to the positive control group (OVX) [2]: 4.09%
microstructure of the bone section (micro-CT three-dimensional image) ([3]; femoral trabecular bone): as dense as that of the negative control group
trabecular separation (Tb. Sp) ([3]; micro-CT of femoral region): levels similar to those of the negative control group
trabecular thickness (Tb. Th) ([3]; micro-CT of femoral region): levels similar to those of the negative control group
increase of life span of Caenorhabditis elegans (Caenorhabditis elegans): 20-30%
